Laboratory results reported in patent US8952024B2, “Herbicidal pyrimidone derivatives” (E I du Pont de Nemours and Company, priority 2009, dated 2015).

Experiments:
Assay type in all cases: in vivo
[1] = system: woolly cupgrass (Eriochloa villosa); assay: Test B pre-/postemergence plant response; conditions: for Cupgrass, Woolly plant response rating: 0 to 100 scale
Summary of the method: (§1)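 Pre-em in loam/sand; post-em at 1–4 leaf (2–18 cm) in peat mix. Solvent + surfactant formulation. Greenhouse 13–15 d; visual % control vs untreated, 0–100.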

[2] = system: yellow nutsedge (Cyperus esculentus); assay: Test B pre-/postemergence plant response; conditions: for Nutsedge, Yellow plant response rating: 0 to 100 scale
Summary of the method: as §1

[3] = system: bermudagrass (Cynodon dactylon); assay: Test B pre-/postemergence plant response; conditions: for Bermudagrass plant response rating: 0 to 100 scale, 0 no effect
Summary of the method: as §1

[4] = system: wheat (Triticum aestivum); assay: Test B pre-/postemergence plant response; conditions: for Wheat plant response rating: 0 to 100 scale
Summary of the method: as §1

[5] = system: lambsquarters (Chenopodium album); assay: Test B pre-/postemergence plant response; conditions: for Lambsquarters plant response rating: 0 to 100 scale
Summary of the method: as §1

[6] = system: pigweed (Amaranthus retroflexus); assay: Test B pre-/postemergence plant response; conditions: for Pigweed plant response rating: 0 to 100 scale
Summary of the method: as §1

[7] = system: Surinam grass (Brachiaria decumbens); assay: Test B pre-/postemergence plant response; conditions: for Surinam Grass plant response rating: 0 to 100 scale
Summary of the method: as §1

[8] = system: downy bromegrass (Bromus tectorum); assay: Test B pre-/postemergence plant response; conditions: for Bromegrass, Downy plant response rating: 0 to 100 scale
Summary of the method: as §1

[9] = system: umbrella sedge (Cyperus difformis); assay: Test B flooded paddy test; conditions: for Plant response rating, Flood, Sedge, Umbrella: 250 g ai/ha, flooded paddy test, visual rating on 0 to 100 scale (0 no effect, 100 complete control) after 13 to 15 days; for Plant response rating, Sedge, Umbrella: Flood (flooded paddy test), 13 to 15 days; for Sedge, Umbrella plant response rating: Flood, 31 g ai/ha, scale 0 to 100 (0 no effect, 100 complete control)
Summary of the method: (§2)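 Flooded-pot test: water raised to 3 cm above soil when treating, compound put in the water, level unchanged thereafter. Plants were at 2 leaves. Readout after 13 to 15 days, visual, relative to controls; 0 signifies no effect and 100 complete control.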

rice (Oryza sativa) = assay: Test B flooded paddy test; conditions: for Plant response rating, Flood, Rice: 250 g ai/ha, flooded paddy test, visual rating on 0 to 100 scale (0 no effect, 100 complete control) after 13 to 15 days; for Plant response rating, Rice: Flood (flooded paddy test), 13 to 15 days; for Rice plant response rating: Flood, 31 g ai/ha, scale 0 to 100 (0 no effect, 100 complete control)
Summary of the method: as §2

[10] = system: barnyardgrass (Echinochloa crus-galli); assay: Test B flooded paddy test; conditions: for Plant response rating, Flood, Barnyardgrass: 250 g ai/ha, flooded paddy test, visual rating on 0 to 100 scale (0 no effect, 100 complete control) after 13 to 15 days; for Plant response rating, Barnyardgrass: Flood (flooded paddy test), 13 to 15 days; for Barnyardgrass plant response rating: Flood, 31 g ai/ha, scale 0 to 100 (0 no effect, 100 complete control)
Summary of the method: as §2

[11] = system: ducksalad (Heteranthera limosa); assay: Test B flooded paddy test; conditions: for Plant response rating, Flood, Ducksalad: 250 g ai/ha, flooded paddy test, visual rating on 0 to 100 scale (0 no effect, 100 complete control) after 13 to 15 days; for Plant response rating, Ducksalad: Flood (flooded paddy test), 13 to 15 days; for Ducksalad plant response rating: Flood, 31 g ai/ha, scale 0 to 100 (0 no effect, 100 complete control)
Summary of the method: as §2

[12] = Postemergence, 31 g ai/ha, 0 to 100 scale (0 no effect, 100 complete control)
[13] = Postemergence, 62 g ai/ha, scale 0 to 100 (0 no effect, 100 complete control)
[14] = Postemergence, 125 g ai/ha, scale 0 (no effect) to 100 (complete control), 13 to 15 days
[15] = Postemergence, 250 g ai/ha, scale 0 to 100 (0 no effect, 100 complete control), 13 to 15 days
[16] = Preemergence, 31 g ai/ha, scale 0 to 100 (0 no effect, 100 complete control)
[17] = Preemergence, 62 g ai/ha, scale 0 to 100 (0 no effect, 100 complete control)
[18] = Preemergence, 125 g ai/ha, scale 0 to 100, 0 no effect, 100 complete control
[19] = Preemergence, 250 g ai/ha, 100 complete control
[20] = 62 g ai/ha, scale of 0 to 100 where 0 is no effect and 100 is complete control
[21] = 125 g ai/ha, scale 0 to 100, 0 is no effect, 100 is complete control

CCCCn1c(-c2cc(F)cc(F)c2)ncc(C(=O)C2=C(O)C3CCC(C3)C2=O)c1=O (stereo not shown) [Compound 245]
95: Plant response rating, Wheat [4, 13] | Plant response rating, Wheat [4, 14] | Plant response rating, Pigweed [6, 17] | Plant response rating, Surinam Grass [7, 16] | Plant response rating, Bromegrass, Downy [8, 13] | Plant response rating, Bromegrass, Downy [8, 14] | Plant response rating, Bromegrass, Downy [8, 15]
60: Plant response rating, Bromegrass, Downy [8, 12] | Sedge, Umbrella plant response rating [9]
90: Plant response rating, Flood, Rice (rice (Oryza sativa))
75: Plant response rating, Nutsedge, Yellow [2, 15] | Plant response rating, Wheat [4, 12]
0: Plant response rating, Nutsedge, Yellow [2, 16] | Plant response rating, Nutsedge, Yellow [2, 17] | Plant response rating, Wheat [4, 16] | Plant response rating, Wheat [4, 17] | Plant response rating, Bromegrass, Downy [8, 16] | Plant response rating, Bromegrass, Downy [8, 17] | Plant response rating, Bromegrass, Downy [8, 18] | Plant response rating, Barnyardgrass [10, 20] | Barnyardgrass plant response rating [10]
5: Plant response rating, Wheat [4, 18]
65: Plant response rating, Nutsedge, Yellow [2, 18] | Plant response rating, Flood, Barnyardgrass [10]
98: Plant response rating, Bermudagrass [3, 16] | Plant response rating, Wheat [4, 15] | Plant response rating, Lambsquarters [5, 12] | Plant response rating, Pigweed [6, 13]
70: Plant response rating, Cupgrass, Woolly [1, 17] | Plant response rating, Nutsedge, Yellow [2, 14]
45: Plant response rating, Nutsedge, Yellow [2, 13]
50: Plant response rating, Cupgrass, Woolly [1, 16] | Plant response rating, Rice (rice (Oryza sativa); [20]) | Plant response rating, Rice (rice (Oryza sativa); [21]) | Rice plant response rating (rice (Oryza sativa))
40: Plant response rating, Nutsedge, Yellow [2, 12] | Plant response rating, Barnyardgrass [10, 21]
100: Plant response rating, Cupgrass, Woolly [1, 12] | Plant response rating, Cupgrass, Woolly [1, 13] | Plant response rating, Cupgrass, Woolly [1, 14] | Plant response rating, Cupgrass, Woolly [1, 15] | Cupgrass, Woolly plant response rating ([1]; Preemergence, 250 g ai/ha) | Plant response rating, Bermudagrass [3, 13] | Plant response rating, Bermudagrass [3, 14] | Plant response rating, Bermudagrass [3, 15] | Plant response rating, Bermudagrass [3, 17] | Plant response rating, Bermudagrass [3, 18] | Bermudagrass plant response rating [3, 19] | Plant response rating, Lambsquarters [5, 13] | Plant response rating, Lambsquarters [5, 14] | Plant response rating, Lambsquarters [5, 15] | Plant response rating, Lambsquarters [5, 16] | Plant response rating, Lambsquarters [5, 17] | Plant response rating, Lambsquarters [5, 18] | Lambsquarters plant response rating ([5]; Preemergence, 250 g ai/ha) | Plant response rating, Pigweed [6, 14] | Plant response rating, Pigweed [6, 15] | Plant response rating, Pigweed [6, 18] | Pigweed plant response rating ([6]; Preemergence, 250 g ai/ha) | Plant response rating, Surinam Grass [7, 12] | Plant response rating, Surinam Grass [7, 13] | Plant response rating, Surinam Grass [7, 14] | Plant response rating, Surinam Grass [7, 15] | Plant response rating, Surinam Grass [7, 17] | Plant response rating, Surinam Grass [7, 18] | Surinam Grass plant response rating ([7]; Preemergence, 250 g ai/ha) | Plant response rating, Flood, Sedge, Umbrella [9] | Plant response rating, Sedge, Umbrella [9, 20] | Plant response rating, Sedge, Umbrella [9, 21] | Plant response rating, Flood, Ducksalad [11] | Plant response rating, Ducksalad [11, 20] | Plant response rating, Ducksalad [11, 21] | Ducksalad plant response rating [11]
15: Wheat plant response rating ([4]; Preemergence, 250 g ai/ha) | Bromegrass, Downy plant response rating ([8]; Preemergence, 250 g ai/ha)
80: Plant response rating, Cupgrass, Woolly [1, 18] | Nutsedge, Yellow plant response rating ([2]; Preemergence, 250 g ai/ha) | Plant response rating, Bermudagrass [3, 12] | Plant response rating, Pigweed [6, 12] | Plant response rating, Pigweed [6, 16]

CCc1ccccc1-n1c(-c2ccccc2)ncc(C(=O)C2=C(O)CCCC2=O)c1=O [Compound 255]
5: Wheat plant response rating ([4]; Preemergence, 250 g ai/ha)
20: Plant response rating, Sedge, Umbrella [9, 20]
75: Plant response rating, Cupgrass, Woolly [1, 18]
15: Plant response rating, Nutsedge, Yellow [2, 13] | Plant response rating, Nutsedge, Yellow [2, 14]
90: Cupgrass, Woolly plant response rating ([1]; Preemergence, 250 g ai/ha) | Nutsedge, Yellow plant response rating ([2]; Preemergence, 250 g ai/ha) | Plant response rating, Bermudagrass [3, 12] | Plant response rating, Lambsquarters [5, 12] | Plant response rating, Surinam Grass [7, 14] | Plant response rating, Surinam Grass [7, 15]
98: Plant response rating, Cupgrass, Woolly [1, 15] | Plant response rating, Lambsquarters [5, 14] | Plant response rating, Lambsquarters [5, 16] | Plant response rating, Pigweed [6, 13] | Plant response rating, Pigweed [6, 14]
50: Plant response rating, Wheat [4, 14] | Plant response rating, Bromegrass, Downy [8, 12] | Plant response rating, Sedge, Umbrella [9, 21] | Plant response rating, Ducksalad [11, 20]
25: Plant response rating, Nutsedge, Yellow [2, 17]
60: Plant response rating, Nutsedge, Yellow [2, 15] | Plant response rating, Bromegrass, Downy [8, 13] | Plant response rating, Flood, Sedge, Umbrella [9] | Plant response rating, Ducksalad [11, 21]
0: Plant response rating, Cupgrass, Woolly [1, 16] | Plant response rating, Wheat [4, 16] | Plant response rating, Wheat [4, 17] | Plant response rating, Wheat [4, 18] | Plant response rating, Bromegrass, Downy [8, 16] | Plant response rating, Bromegrass, Downy [8, 17] | Plant response rating, Bromegrass, Downy [8, 18] | Sedge, Umbrella plant response rating [9] | Plant response rating, Flood, Rice (rice (Oryza sativa)) | Plant response rating, Rice (rice (Oryza sativa); [20]) | Plant response rating, Rice (rice (Oryza sativa); [21]) | Rice plant response rating (rice (Oryza sativa)) | Plant response rating, Flood, Barnyardgrass [10] | Plant response rating, Barnyardgrass [10, 20] | Plant response rating, Barnyardgrass [10, 21] | Barnyardgrass plant response rating [10] | Ducksalad plant response rating [11]
35: Plant response rating, Wheat [4, 12]
65: Plant response rating, Surinam Grass [7, 16]
80: Plant response rating, Wheat [4, 15] | Plant response rating, Pigweed [6, 12] | Plant response rating, Surinam Grass [7, 12] | Plant response rating, Surinam Grass [7, 13] | Plant response rating, Bromegrass, Downy [8, 14] | Plant response rating, Flood, Ducksalad [11]
95: Plant response rating, Cupgrass, Woolly [1, 13] | Plant response rating, Cupgrass, Woolly [1, 14] | Plant response rating, Bermudagrass [3, 13] | Plant response rating, Bermudagrass [3, 14] | Plant response rating, Lambsquarters [5, 13] | Plant response rating, Surinam Grass [7, 18]
40: Plant response rating, Nutsedge, Yellow [2, 18] | Plant response rating, Wheat [4, 13] | Bromegrass, Downy plant response rating ([8]; Preemergence, 250 g ai/ha)
85: Plant response rating, Cupgrass, Woolly [1, 12] | Plant response rating, Surinam Grass [7, 17] | Plant response rating, Bromegrass, Downy [8, 15]
10: Plant response rating, Cupgrass, Woolly [1, 17] | Plant response rating, Nutsedge, Yellow [2, 12] | Plant response rating, Nutsedge, Yellow [2, 16]
100: Plant response rating, Bermudagrass [3, 15] | Plant response rating, Bermudagrass [3, 16] | Plant response rating, Bermudagrass [3, 17] | Plant response rating, Bermudagrass [3, 18] | Bermudagrass plant response rating [3, 19] | Plant response rating, Lambsquarters [5, 15] | Plant response rating, Lambsquarters [5, 17] | Plant response rating, Lambsquarters [5, 18] | Lambsquarters plant response rating ([5]; Preemergence, 250 g ai/ha) | Plant response rating, Pigweed [6, 15] | Plant response rating, Pigweed [6, 16] | Plant response rating, Pigweed [6, 17] | Plant response rating, Pigweed [6, 18] | Pigweed plant response rating ([6]; Preemergence, 250 g ai/ha) | Surinam Grass plant response rating ([7]; Preemergence, 250 g ai/ha)
